Several values for one entry are separate records, joined by “and”; a condition that tells them apart may be missing. Identical values can stand only once.
What was measured:
[1] = molecular target: PRMT8 (Homo sapiens, UniProt Q9NR22); assay: biochemical
[2] = molecular target: PRMT7 (Homo sapiens, UniProt Q9NVM4); assay: Radioisotope-based methyltransferase assay (selectivity)
[3] = Hematological and hepatic parameters, 2-week repeated oral dosing; format: in vivo; conditions: rats
[4] = RK-701 10 mg/kg for two weeks, individual animals 1-5, 10 mg/kg
[5] = RK-701 30 mg/kg for two weeks, individual animals 1-5, 30 mg/kg
[6] = RK-701 100 mg/kg for two weeks, individual animals 1-5, 100 mg/kg

Sequence of PRMT7 (Q9NVM4 whole entry): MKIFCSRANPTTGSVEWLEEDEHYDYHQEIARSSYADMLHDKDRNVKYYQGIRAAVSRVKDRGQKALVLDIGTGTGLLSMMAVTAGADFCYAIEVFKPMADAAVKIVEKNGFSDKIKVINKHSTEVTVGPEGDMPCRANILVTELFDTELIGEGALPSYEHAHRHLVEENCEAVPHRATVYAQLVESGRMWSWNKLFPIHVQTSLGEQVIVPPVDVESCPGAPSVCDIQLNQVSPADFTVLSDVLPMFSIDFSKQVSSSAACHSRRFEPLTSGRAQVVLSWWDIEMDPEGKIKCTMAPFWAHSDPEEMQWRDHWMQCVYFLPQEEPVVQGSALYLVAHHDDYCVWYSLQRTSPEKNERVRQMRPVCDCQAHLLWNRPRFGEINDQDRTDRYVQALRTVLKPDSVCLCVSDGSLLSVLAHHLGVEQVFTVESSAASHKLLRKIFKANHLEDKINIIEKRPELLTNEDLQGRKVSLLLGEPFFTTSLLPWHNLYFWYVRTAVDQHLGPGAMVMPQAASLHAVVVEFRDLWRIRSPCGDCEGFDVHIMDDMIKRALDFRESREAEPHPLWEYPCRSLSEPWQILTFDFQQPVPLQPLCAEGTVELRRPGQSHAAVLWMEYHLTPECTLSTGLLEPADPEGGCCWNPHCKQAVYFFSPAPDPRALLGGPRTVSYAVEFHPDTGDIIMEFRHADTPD
Sequence of PRMT8 (Q9NR22 whole entry): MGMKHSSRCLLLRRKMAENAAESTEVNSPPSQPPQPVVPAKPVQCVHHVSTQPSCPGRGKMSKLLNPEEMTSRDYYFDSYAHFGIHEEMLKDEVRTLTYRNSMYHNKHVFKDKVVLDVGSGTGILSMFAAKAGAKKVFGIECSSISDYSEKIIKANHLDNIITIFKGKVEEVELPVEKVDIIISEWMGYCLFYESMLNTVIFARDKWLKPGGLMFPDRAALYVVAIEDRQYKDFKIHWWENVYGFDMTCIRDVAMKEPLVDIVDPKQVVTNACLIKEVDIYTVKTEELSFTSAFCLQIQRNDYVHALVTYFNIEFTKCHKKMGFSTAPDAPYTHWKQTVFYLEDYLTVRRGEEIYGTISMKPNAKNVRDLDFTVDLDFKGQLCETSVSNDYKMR

## Cc1c(C(=O)NC(CCC2CC2)C(=O)Nc2ccc(C#N)cc2)[nH]c2c1C(=O)CC(C)(C)C2 (centres unmarked) [RK-701]
[1]
  IC50: > 100 µM
[2]
  IC50: > 100 µM
[3]; [4]
  ALB: 3.3 g/dL and 3.6 g/dL and 3.5 g/dL and 3.9 g/dL
  ALP: 498 IU/L and 658 IU/L and 651 IU/L and 305 IU/L and 323 IU/L
  ALT: 35 IU/L and 24 IU/L and 23 IU/L and 29 IU/L and 31 IU/L
  AST: 65 IU/L and 68 IU/L and 63 IU/L and 58 IU/L
  EOS: 0.8 x 10^2 cells/μL and 0.5 x 10^2 cells/μL and 0.6 x 10^2 cells/μL
  HCT: 43.6% and 43.5% and 41.3% and 46.1% and 43.9%
  HGB: 15.1 g/dL and 14.9 g/dL and 14.2 g/dL and 16.2 g/dL and 15.2 g/dL
  LUC: 0.5 x 10^2 cells/μL and 0.3 x 10^2 cells/μL and 0.2 x 10^2 cells/μL and 0.6 x 10^2 cells/μL
  Lymph: 60.7 x 10^2 cells/μL and 48.8 x 10^2 cells/μL and 34.7 x 10^2 cells/μL and 52.6 x 10^2 cells/μL and 60.4 x 10^2 cells/μL
  MCH: 20.6 pg and 20.7 pg and 19.3 pg and 20.9 pg and 20.5 pg
  MCHC: 34.6 g/dL and 34.4 g/dL and 35.1 g/dL and 34.7 g/dL
  MCV: 59.5 fL and 60.2 fL and 56.2 fL and 59.6 fL and 59.1 fL
  MONO: 1 x 10^2 cells/μL and 0.9 x 10^2 cells/μL and 0.6 x 10^2 cells/μL and 1.2 x 10^2 cells/μL
  NEUT: 8.2 x 10^2 cells/μL and 4.4 x 10^2 cells/μL and 6.1 x 10^2 cells/μL and 5.2 x 10^2 cells/μL and 8.1 x 10^2 cells/μL
  PL: 141 mg/dL and 106 mg/dL and 124 mg/dL and 99 mg/dL and 133 mg/dL
  PLT: 127.6 x 10^4 cells/μL and 123.4 x 10^4 cells/μL and 117.1 x 10^4 cells/μL and 123.6 x 10^4 cells/μL and 146.5 x 10^4 cells/μL
  RBC: 732 x 10^4 cells/μL and 722 x 10^4 cells/μL and 735 x 10^4 cells/μL and 773 x 10^4 cells/μL and 743 x 10^4 cells/μL
  Retic: 223.8 x 10^9 cells/L and 153 x 10^9 cells/L and 208.3 x 10^9 cells/L and 171.7 x 10^9 cells/L and 194.5 x 10^9 cells/L
  T-CHO: 87 mg/dL and 57 mg/dL and 73 mg/dL and 64 mg/dL
  TG: 26 mg/dL and 11 mg/dL and 19 mg/dL and 14 mg/dL and 48 mg/dL
  TP: 5.8 g/dL and 6.1 g/dL and 5.9 g/dL and 6.4 g/dL
  WBC: 71.3 x 10^2 cells/μL and 55 x 10^2 cells/μL and 42.1 x 10^2 cells/μL and 59.6 x 10^2 cells/μL and 70.9 x 10^2 cells/μL
[3]; [5]
  ALB: 3.3 g/dL and 3.6 g/dL and 3.5 g/dL
  ALP: 418 IU/L and 310 IU/L and 628 IU/L and 586 IU/L and 615 IU/L
  ALT: 28 IU/L and 21 IU/L and 29 IU/L and 25 IU/L
  AST: 71 IU/L and 66 IU/L and 59 IU/L and 54 IU/L and 70 IU/L
  EOS: 0.4 x 10^2 cells/μL and 0.5 x 10^2 cells/μL and 0.7 x 10^2 cells/μL and 0.3 x 10^2 cells/μL
  HCT: 41.9% and 44.7% and 43.2% and 41.2% and 41.8%
  HGB: 13.9 g/dL and 15.2 g/dL and 14.7 g/dL and 14.2 g/dL and 14.4 g/dL
  LUC: 0.5 x 10^2 cells/μL and 0.2 x 10^2 cells/μL and 0.6 x 10^2 cells/μL and 0.4 x 10^2 cells/μL
  Lymph: 67.9 x 10^2 cells/μL and 38.8 x 10^2 cells/μL and 53.8 x 10^2 cells/μL and 52 x 10^2 cells/μL and 52.5 x 10^2 cells/μL
  MCH: 18.8 pg and 19.5 pg and 21.3 pg and 20.8 pg
  MCHC: 33.3 g/dL and 33.9 g/dL and 34.1 g/dL and 34.4 g/dL
  MCV: 56.4 fL and 57.4 fL and 62.5 fL and 56.7 fL and 60.3 fL
  MONO: 1 x 10^2 cells/μL and 0.8 x 10^2 cells/μL and 0.9 x 10^2 cells/μL
  NEUT: 5.1 x 10^2 cells/μL and 8.7 x 10^2 cells/μL and 4.3 x 10^2 cells/μL and 6.5 x 10^2 cells/μL and 8.9 x 10^2 cells/μL
  PL: 116 mg/dL and 127 mg/dL and 128 mg/dL and 100 mg/dL and 113 mg/dL
  PLT: 120.9 x 10^4 cells/μL and 129.5 x 10^4 cells/μL and 130.8 x 10^4 cells/μL and 134.3 x 10^4 cells/μL and 95.6 x 10^4 cells/μL
  RBC: 742 x 10^4 cells/μL and 779 x 10^4 cells/μL and 692 x 10^4 cells/μL and 726 x 10^4 cells/μL and 693 x 10^4 cells/μL
  Retic: 276.8 x 10^9 cells/L and 221.1 x 10^9 cells/L and 186.9 x 10^9 cells/L and 199.2 x 10^9 cells/L and 253.8 x 10^9 cells/L
  T-CHO: 63 mg/dL and 69 mg/dL and 62 mg/dL and 58 mg/dL and 68 mg/dL
  TG: 16 mg/dL and 19 mg/dL and 25 mg/dL and 12 mg/dL and 11 mg/dL
  TP: 5.7 g/dL and 6.1 g/dL and 6 g/dL and 5.8 g/dL
  WBC: 74.9 x 10^2 cells/μL and 49.1 x 10^2 cells/μL and 60.2 x 10^2 cells/μL and 60.7 x 10^2 cells/μL and 63.2 x 10^2 cells/μL
[3]; [6]
  ALB: 3.4 g/dL and 3.3 g/dL and 3.2 g/dL and 3.5 g/dL
  ALP: 450 IU/L and 547 IU/L and 566 IU/L and 866 IU/L and 399 IU/L
  ALT: 37 IU/L and 26 IU/L and 28 IU/L and 29 IU/L and 25 IU/L
  AST: 63 IU/L and 59 IU/L and 68 IU/L and 70 IU/L and 58 IU/L
  EOS: 0.3 x 10^2 cells/μL and 0.6 x 10^2 cells/μL and 0.8 x 10^2 cells/μL and 0.7 x 10^2 cells/μL
  HCT: 43.3% and 44.1% and 41.3% and 42.5% and 43.5%
  HGB: 14.8 g/dL and 15 g/dL and 14.4 g/dL and 14.6 g/dL
  LUC: 0.4 x 10^2 cells/μL and 0.5 x 10^2 cells/μL and 0.3 x 10^2 cells/μL and 0.9 x 10^2 cells/μL
  Lymph: 61.6 x 10^2 cells/μL and 55.7 x 10^2 cells/μL and 66.9 x 10^2 cells/μL and 49.9 x 10^2 cells/μL and 88.7 x 10^2 cells/μL
  MCH: 20.2 pg and 20.4 pg and 20.6 pg and 20.1 pg
  MCHC: 34.3 g/dL and 34 g/dL and 34.8 g/dL and 34.4 g/dL
  MCV: 59 fL and 60.2 fL and 59.1 fL and 58.3 fL and 58.6 fL
  MONO: 1.3 x 10^2 cells/μL and 0.7 x 10^2 cells/μL and 1.6 x 10^2 cells/μL and 1 x 10^2 cells/μL and 1.4 x 10^2 cells/μL
  NEUT: 7.8 x 10^2 cells/μL and 2.7 x 10^2 cells/μL and 9.7 x 10^2 cells/μL and 9.5 x 10^2 cells/μL and 9.3 x 10^2 cells/μL
  PL: 153 mg/dL and 118 mg/dL and 132 mg/dL and 110 mg/dL and 173 mg/dL
  PLT: 110.2 x 10^4 cells/μL and 121.4 x 10^4 cells/μL and 96 x 10^4 cells/μL and 122.9 x 10^4 cells/μL and 114.3 x 10^4 cells/μL
  RBC: 733 x 10^4 cells/μL and 700 x 10^4 cells/μL and 729 x 10^4 cells/μL and 744 x 10^4 cells/μL
  Retic: 130.2 x 10^9 cells/L and 149.9 x 10^9 cells/L and 250.7 x 10^9 cells/L and 185.7 x 10^9 cells/L and 177.3 x 10^9 cells/L
  T-CHO: 94 mg/dL and 67 mg/dL and 91 mg/dL and 72 mg/dL and 116 mg/dL
  TG: 26 mg/dL and 19 mg/dL and 9 mg/dL and 8 mg/dL and 32 mg/dL
  TP: 5.6 g/dL and 5.8 g/dL and 5.9 g/dL and 5.7 g/dL and 6.2 g/dL
  WBC: 71.5 x 10^2 cells/μL and 60.2 x 10^2 cells/μL and 79.6 x 10^2 cells/μL and 61.2 x 10^2 cells/μL and 101.3 x 10^2 cells/μL
[3]; oral, up to 100 mg/kg, two weeks
  effect on hematological and hepatic parameters: no serious effect
[3]; two weeks, 10 mg/kg
  ALB: 3.6 ± 0.2 g/dL
  ALP: 487 ± 170 IU/L

Reference: article PMC9837035 (Nature Communications, 2023)
